Laboratory results taken from ChEMBL document CHEMBL1201862, “PubChem BioAssay data set” (2004).
Active and inactive are the calls of the source.

How the values were obtained:
[1] = molecular target: Metabotropic glutamate receptor 5 (Rattus norvegicus, UniProt P31424); assay: Identification of a glycine sulfonamide based non-MPEP site positive allosteric potentiator (PAM) of mGlu5 (calcium_assay).; format: functional
[2] = molecular target: T1, High affinity choline transporter 1 (Homo sapiens, UniProt Q9GZV3); assay: inhibition of SLC5A7-mediated choline transport – cell-based, HEK-293 hCHT, [3H]-choline uptake, dose response (AID 652177); format: functional
T1 sequence (Q9GZV3 whole entry): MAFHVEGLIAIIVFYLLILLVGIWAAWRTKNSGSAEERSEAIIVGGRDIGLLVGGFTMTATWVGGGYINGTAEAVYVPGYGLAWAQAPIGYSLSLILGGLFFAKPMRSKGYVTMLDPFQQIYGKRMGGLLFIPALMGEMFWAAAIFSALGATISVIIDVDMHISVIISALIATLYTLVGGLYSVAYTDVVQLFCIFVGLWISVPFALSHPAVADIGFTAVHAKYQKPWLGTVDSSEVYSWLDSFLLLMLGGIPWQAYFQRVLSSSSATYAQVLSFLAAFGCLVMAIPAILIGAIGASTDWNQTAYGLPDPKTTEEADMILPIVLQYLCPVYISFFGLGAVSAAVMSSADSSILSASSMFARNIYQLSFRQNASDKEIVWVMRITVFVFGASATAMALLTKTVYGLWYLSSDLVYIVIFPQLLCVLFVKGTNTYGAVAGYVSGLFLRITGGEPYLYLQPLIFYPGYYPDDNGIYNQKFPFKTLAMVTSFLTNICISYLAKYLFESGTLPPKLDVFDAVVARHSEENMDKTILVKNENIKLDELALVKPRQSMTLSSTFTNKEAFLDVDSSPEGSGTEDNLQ

[3] = tested on: Streptococcus sp. 'group A'; assay: Streptococcus pyogenes SK(-)GAS viability under kanamycin – luminescence, BacTiterGlo, confirmation, counter-screen for streptokinase expression inhibitor project, dose response (AID 1900); format: functional, organism-based
[4] = tested on: Streptococcus; assay: GAS UMAA2166 growth inhibition – luminescence, BacTiterGlo, counter-screen for streptokinase expression inhibitor project, dose response (AID 1915); format: functional, organism-based;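 note: potency for reduction of bacterial viability or growth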
[5] = molecular target: Caspase-6 (Homo sapiens, UniProt P55212); assay: inhibition of CASP6 peptide cleavage – biochemical, VEID-R110 fluorescence, cherry-pick, dose response (AID 720632)
Caspase-6, sequence (P55212 24-179 limits assumed): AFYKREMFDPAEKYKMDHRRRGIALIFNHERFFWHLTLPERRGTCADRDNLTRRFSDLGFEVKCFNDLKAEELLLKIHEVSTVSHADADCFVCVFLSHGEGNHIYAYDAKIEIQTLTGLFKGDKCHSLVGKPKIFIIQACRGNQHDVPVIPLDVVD
Caspase-6, sequence (P55212 194-293 limits assumed): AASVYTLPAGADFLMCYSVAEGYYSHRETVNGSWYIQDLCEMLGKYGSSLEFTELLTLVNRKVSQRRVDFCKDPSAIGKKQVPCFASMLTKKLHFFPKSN

[6] = molecular target: T2, Streptokinase A (Streptococcus pyogenes serotype M1, UniProt P10520); assay: viability-normalized secreted streptokinase activity reduction – plasminogen activation absorbance, OD405, dose response (AID 1914); format: functional, Streptococcus pyogenes M1 GAS;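 note: secreted streptokinase activity via plasminogen activation per viability signal from cell pellet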
T2 sequence (P10520 whole entry): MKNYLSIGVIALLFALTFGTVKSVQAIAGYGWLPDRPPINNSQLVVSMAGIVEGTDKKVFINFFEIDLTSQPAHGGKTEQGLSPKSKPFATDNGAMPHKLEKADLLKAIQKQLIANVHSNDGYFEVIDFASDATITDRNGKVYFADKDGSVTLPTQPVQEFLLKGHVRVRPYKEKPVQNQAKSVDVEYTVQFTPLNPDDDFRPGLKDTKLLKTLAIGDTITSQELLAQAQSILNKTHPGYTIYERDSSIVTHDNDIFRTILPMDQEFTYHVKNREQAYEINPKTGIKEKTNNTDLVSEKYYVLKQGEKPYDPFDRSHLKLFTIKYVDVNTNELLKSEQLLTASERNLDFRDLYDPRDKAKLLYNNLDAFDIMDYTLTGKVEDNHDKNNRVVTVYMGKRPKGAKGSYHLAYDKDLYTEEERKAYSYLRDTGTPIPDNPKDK

[7] = suppression of HIF-dependent reporter luminescence – cell-based, dry powder samples, 2158-07, ARNT-TACC3 inhibitor project, dose response (AID 720561); format: functional
[8] = hypoxia HIF reporter signal reduction – HeLa cells, luminescence, dry powder samples, 2158-08, ARNT-TACC3 inhibitor project, dose response (AID 720560); format: functional, cell-based
[9] = molecular target: T3, Oxysterols receptor LXR-beta (Homo sapiens, UniProt P55055); format: functional, cell-based;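 note: Cell-based luminescence dose-response assay of agonist activity at LXR, run as a confirmatory counterscreen to a daf-12 agonist screen; HEK293 cells with Gal4-LXR fusion and GAL4-driven luciferase reporter; agonist potency from rising luciferase signal of a Gal4-LXR reporter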
T3 sequence (P55055 whole entry): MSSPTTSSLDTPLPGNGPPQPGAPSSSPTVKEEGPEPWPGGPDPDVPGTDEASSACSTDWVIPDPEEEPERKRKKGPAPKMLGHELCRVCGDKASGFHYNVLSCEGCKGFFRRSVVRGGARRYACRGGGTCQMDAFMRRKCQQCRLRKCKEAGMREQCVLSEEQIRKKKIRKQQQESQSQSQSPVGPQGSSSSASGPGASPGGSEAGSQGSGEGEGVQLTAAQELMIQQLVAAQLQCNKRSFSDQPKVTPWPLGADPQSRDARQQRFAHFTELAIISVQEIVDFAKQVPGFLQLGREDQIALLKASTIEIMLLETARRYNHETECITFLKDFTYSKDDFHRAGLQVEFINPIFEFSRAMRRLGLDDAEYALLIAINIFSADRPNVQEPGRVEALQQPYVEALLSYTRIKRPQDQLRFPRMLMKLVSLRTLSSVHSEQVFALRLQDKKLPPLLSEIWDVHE

[10] = cells
[11] = tested on: Vero; assay: cells; format: functional, cell-based; details: Chlorocebus sabaeus
[12] = HGIII-sPLA2 enzyme inhibition potency – biochemical, QFRET, IC50, dose response (AID 743457);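 note: green fluorescence rise as the enzyme cleaves BODIPY PC-A2 in liposomes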
[13] = molecular target: T4, Corticotropin-releasing factor receptor 2/Corticotropin-releasing factor-binding protein (Homo sapiens, UniProt P24387+Q13324); assay: activators of CRF receptor 2 with binding protein – uHTS hits, confirmation (AID 602473); format: functional; details: read-out: EC50_Mean
T4 sequence (Q13324 whole entry): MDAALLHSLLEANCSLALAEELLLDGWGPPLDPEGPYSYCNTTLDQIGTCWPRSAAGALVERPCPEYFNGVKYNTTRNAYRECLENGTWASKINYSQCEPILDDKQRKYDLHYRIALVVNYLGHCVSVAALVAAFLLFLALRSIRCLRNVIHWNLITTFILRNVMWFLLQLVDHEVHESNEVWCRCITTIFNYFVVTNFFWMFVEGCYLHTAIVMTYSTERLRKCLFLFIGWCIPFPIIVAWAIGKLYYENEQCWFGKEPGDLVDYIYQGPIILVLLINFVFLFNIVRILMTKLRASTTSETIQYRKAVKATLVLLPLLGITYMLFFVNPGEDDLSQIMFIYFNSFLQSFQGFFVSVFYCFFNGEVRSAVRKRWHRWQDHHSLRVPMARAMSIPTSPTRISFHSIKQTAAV
T4 sequence (P24387 whole entry): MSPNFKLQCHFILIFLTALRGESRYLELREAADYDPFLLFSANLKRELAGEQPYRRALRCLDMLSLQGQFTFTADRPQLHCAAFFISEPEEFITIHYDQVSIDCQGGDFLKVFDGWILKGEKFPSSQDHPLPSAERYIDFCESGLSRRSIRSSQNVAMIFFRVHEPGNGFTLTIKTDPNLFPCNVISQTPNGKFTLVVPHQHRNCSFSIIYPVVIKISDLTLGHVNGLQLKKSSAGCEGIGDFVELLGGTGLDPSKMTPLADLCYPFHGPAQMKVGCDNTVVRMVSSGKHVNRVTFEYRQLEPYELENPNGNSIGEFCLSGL

[14] = tested on: Vero; assay: cells; format: functional; details: Chlorocebus sabaeus
[15] = inhibition of mouse IRAP aminopeptidase activity – biochemical, Leu-AMC fluorescence, cherry-picked samples, set 2, selectivity assay for ERAP1 modulator project, dose response (AID 743340)
[16] = tested on: H4; assay: Luminescence Cell-Based Dose Response HTS to Identify Activators of 5'UTR Stem-Loop Driven Prion Protein mRNA Translation in H4 Neuroglioblastoma Cells. [Related pubchem assays: 1829 (Project Summary), 1814 (Primary HTS)]; format: functional; details: Homo sapiens
[17] = cells; remark: listed apart in the source
[18] = Luminescence Cell-Based Dose Response HTS to Identify Activators of Luciferase Translation or Activity in H4 […] Cells. [Related pubchem assays: 1829 (Project Summary), 1814 (Primary HTS)]; format: functional
[19] = Luminescence Cell-Based Dose Confirmation HTS to Identify Activators of 5'UTR Stem-Loop Driven Alpha-Synuclein mRNA Translation in H4 Neuroglioblastoma Cells. [Related pubchem assays: 1829 (Project Summary), 1814 (Primary HTS)]; format: functional
[20] = cells; details: HEK293
[21] = HeLa cell viability loss – plate reader, dry powder, cytotoxicity control, dose response (AID 651946); format: functional, cell-based
[22] = molecular target: T5, Methionyl-tRNA synthetase, putative (Trypanosoma brucei brucei, UniProt Q38C91); format: functional, Trypanosoma brucei brucei strain 927/4 GUTat10.1
T5 sequence (Q38C91 whole entry): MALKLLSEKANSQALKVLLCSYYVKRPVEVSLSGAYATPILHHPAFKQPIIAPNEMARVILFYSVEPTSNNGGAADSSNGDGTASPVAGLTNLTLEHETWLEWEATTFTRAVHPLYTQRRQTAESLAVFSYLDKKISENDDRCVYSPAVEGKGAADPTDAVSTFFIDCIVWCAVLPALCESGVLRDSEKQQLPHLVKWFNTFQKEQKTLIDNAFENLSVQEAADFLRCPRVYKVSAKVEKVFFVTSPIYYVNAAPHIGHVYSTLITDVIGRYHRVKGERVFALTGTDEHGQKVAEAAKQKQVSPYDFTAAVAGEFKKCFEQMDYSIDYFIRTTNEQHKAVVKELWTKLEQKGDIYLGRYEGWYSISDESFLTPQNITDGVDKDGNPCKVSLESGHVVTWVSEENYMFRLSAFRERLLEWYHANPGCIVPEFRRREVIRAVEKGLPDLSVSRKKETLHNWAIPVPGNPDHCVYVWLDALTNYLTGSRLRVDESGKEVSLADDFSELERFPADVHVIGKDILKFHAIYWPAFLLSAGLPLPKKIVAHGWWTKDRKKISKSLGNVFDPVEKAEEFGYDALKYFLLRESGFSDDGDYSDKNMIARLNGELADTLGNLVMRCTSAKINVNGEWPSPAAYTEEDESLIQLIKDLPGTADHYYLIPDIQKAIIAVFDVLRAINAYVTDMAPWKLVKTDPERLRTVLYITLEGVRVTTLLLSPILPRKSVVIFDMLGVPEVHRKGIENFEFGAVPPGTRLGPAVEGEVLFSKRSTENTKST

[23] = Late stage counterscreen for inhibitors of Trypanosoma brucei methionyl tRNA synthetase (MetRS): Luminescence-based cell-based high throughput dose response assay to identify compounds that are cytotoxic to Jurkat human T lymphocyte cells.; format: functional
[24] = molecular target: T5, Methionyl-tRNA synthetase, putative; format: functional, Trypanosoma brucei brucei strain 927/4 GUTat10.1; remark: listed apart in the source
[25] = Counterscreen for inhibitors of Trypanosoma brucei methionyl tRNA synthetase (MetRS): Luminescence-based cell-based high throughput dose response assay to identify compounds that are cytotoxic to Jurkat human T lymphocyte cells.; format: functional
[26] = tested on: HEK293; assay: viability loss in HEK293T cells – cell-based, ATP luminescence, cherry-pick samples, cytotoxicity control, dose response (AID 687005); format: functional; details: Homo sapiens;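 note: cells exposed to compound for 48 hours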
[27] = tested on: HeLa; assay: viability loss in HeLa cells – cell-based, ATP luminescence, cherry-pick samples, cytotoxicity control, dose response (AID 687004); format: functional; details: Homo sapiens
[28] = HEK293 Cytotoxicity Assay Measured in Cell-Based System Using Plate Reader - 7071-01_Inhibitor_Dose_CherryPick_Activity_Set2.; format: functional
[29] = disruptors of Keap1/Nrf2 protein interaction – biochemical, fluorescence polarization, dry powder, set 3, dose response (AID 651806)
[30] = kidney cell line viability loss – HEK293T, luminescence plate reader, powder samples, set 4, cytotoxicity control, dose response (AID 651863); format: functional, cell-based; details: HEK293
[31] = dual-tagged ARNT PAS-B bead signal quenchers – biochemical, dry powder, artefact control for ARNT/TACC3 disruptor project, dose response (AID 720564)
[32] = molecular target: Steroidogenic factor 1 (Homo sapiens, UniProt Q13285); assay: Counterscreen for inverse agonists of the liver receptor homolog-1 (LRH-1; NR5A2): Luminescence-based cell-based high throughput dose response assay to identify inverse agonists of the Steroidogenic Factor 1 Nuclear Receptor (SF1; NR5A1).; format: functional
Steroidogenic factor 1, sequence (Q13285 whole entry): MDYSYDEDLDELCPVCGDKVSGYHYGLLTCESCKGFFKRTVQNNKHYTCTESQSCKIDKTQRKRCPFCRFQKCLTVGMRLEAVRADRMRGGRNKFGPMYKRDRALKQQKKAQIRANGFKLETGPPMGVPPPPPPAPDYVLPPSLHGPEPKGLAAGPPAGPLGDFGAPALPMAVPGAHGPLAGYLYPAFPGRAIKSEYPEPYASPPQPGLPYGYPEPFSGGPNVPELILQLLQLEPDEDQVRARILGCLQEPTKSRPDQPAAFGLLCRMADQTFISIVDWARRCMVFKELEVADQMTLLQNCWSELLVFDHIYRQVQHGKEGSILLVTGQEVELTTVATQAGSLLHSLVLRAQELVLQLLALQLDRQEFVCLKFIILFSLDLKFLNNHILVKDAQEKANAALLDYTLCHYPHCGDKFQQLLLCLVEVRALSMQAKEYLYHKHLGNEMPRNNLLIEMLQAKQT

[33] = molecular target: Nuclear receptor subfamily 5 group A member 2 (Homo sapiens, UniProt O00482); format: functional, cell-based;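 note: HEK293T cells transfected with LRH-1 and a StAR promoter luciferase reporter; potency for inhibitors that lower LRH-1 driven reporter light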
Nuclear receptor subfamily 5 group A member 2, sequence (O00482 whole entry): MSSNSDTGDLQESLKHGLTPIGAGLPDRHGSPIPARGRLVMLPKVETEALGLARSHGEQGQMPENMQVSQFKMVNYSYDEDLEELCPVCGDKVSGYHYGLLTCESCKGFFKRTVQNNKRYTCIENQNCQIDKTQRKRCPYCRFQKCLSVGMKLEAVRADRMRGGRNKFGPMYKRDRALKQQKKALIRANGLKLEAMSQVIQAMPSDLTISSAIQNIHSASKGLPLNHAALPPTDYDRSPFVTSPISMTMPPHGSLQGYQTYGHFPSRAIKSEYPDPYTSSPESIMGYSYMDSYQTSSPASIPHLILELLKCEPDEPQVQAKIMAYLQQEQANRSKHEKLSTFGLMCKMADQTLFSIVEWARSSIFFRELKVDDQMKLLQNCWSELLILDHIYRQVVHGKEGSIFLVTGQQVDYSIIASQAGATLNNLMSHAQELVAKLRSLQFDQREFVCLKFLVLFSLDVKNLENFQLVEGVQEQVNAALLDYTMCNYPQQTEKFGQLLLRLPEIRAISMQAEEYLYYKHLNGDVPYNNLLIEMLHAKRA

[34] = nonselective StAR promoter luciferase inhibitors – cell-based, luminescence, luciferase reporter, counter-screen for LRH-1 inverse agonist project, dose response (AID 651969); format: functional
[35] = molecular target: Voltage-gated inwardly rectifying potassium channel KCNH2 (Homo sapiens, UniProt Q12809); assay: off-target hERG block by TASK1 inhibitor candidates – FluxOR thallium flux, concentration-response, CHO cells, selectivity assay for TASK1 inhibitor project, SAR follow-up (AID 652194); format: functional, cell-based
Voltage-gated inwardly rectifying potassium channel KCNH2, sequence (Q12809 whole entry): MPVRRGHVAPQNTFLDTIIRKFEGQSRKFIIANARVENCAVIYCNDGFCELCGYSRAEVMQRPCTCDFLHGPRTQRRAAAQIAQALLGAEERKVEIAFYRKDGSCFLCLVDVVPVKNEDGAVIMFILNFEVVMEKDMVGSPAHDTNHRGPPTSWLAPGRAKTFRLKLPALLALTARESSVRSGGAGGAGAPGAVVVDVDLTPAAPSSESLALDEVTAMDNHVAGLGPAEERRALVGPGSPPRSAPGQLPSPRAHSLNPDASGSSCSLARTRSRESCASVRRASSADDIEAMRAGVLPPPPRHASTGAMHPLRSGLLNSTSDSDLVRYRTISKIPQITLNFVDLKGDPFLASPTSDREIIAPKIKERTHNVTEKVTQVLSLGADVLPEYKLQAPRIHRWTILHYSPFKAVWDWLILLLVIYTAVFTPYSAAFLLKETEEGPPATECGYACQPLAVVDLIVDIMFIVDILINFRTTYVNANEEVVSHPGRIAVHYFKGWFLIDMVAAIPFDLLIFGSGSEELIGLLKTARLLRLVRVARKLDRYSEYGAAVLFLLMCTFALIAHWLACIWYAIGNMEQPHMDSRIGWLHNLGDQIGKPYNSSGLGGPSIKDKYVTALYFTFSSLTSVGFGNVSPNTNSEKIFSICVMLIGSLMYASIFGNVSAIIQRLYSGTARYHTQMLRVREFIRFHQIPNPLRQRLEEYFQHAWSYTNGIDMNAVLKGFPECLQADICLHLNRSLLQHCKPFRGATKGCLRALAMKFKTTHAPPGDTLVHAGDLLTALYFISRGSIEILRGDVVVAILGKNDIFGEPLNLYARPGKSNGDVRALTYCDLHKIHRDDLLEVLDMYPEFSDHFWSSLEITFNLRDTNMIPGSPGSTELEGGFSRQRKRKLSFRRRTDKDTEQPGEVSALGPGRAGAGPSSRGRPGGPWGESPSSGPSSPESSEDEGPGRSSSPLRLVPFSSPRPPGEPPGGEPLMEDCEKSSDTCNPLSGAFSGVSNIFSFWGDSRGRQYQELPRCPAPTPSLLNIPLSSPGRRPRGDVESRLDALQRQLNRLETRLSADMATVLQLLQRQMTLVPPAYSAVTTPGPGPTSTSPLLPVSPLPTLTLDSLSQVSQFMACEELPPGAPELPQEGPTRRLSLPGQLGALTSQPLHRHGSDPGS

[36] = molecular target: Potassium channel subfamily K member 3 (Homo sapiens, UniProt O14649); assay: inhibition of human KCNK3 channel flux – CHO cells, FluxOR thallium flux, SAR follow-up (AID 652212); format: functional
Potassium channel subfamily K member 3, sequence (O14649 whole entry): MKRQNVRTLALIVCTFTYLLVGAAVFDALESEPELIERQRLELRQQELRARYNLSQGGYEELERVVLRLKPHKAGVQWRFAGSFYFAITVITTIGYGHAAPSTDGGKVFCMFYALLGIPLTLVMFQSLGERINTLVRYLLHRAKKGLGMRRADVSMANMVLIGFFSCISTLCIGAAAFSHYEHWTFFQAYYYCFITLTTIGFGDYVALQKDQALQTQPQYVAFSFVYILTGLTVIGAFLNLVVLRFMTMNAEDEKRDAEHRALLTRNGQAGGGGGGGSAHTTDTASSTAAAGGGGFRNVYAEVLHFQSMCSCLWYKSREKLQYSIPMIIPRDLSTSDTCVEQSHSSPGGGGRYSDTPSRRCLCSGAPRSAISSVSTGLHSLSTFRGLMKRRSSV

Metabotropic glutamate receptor 5, sequence (P31424 whole entry): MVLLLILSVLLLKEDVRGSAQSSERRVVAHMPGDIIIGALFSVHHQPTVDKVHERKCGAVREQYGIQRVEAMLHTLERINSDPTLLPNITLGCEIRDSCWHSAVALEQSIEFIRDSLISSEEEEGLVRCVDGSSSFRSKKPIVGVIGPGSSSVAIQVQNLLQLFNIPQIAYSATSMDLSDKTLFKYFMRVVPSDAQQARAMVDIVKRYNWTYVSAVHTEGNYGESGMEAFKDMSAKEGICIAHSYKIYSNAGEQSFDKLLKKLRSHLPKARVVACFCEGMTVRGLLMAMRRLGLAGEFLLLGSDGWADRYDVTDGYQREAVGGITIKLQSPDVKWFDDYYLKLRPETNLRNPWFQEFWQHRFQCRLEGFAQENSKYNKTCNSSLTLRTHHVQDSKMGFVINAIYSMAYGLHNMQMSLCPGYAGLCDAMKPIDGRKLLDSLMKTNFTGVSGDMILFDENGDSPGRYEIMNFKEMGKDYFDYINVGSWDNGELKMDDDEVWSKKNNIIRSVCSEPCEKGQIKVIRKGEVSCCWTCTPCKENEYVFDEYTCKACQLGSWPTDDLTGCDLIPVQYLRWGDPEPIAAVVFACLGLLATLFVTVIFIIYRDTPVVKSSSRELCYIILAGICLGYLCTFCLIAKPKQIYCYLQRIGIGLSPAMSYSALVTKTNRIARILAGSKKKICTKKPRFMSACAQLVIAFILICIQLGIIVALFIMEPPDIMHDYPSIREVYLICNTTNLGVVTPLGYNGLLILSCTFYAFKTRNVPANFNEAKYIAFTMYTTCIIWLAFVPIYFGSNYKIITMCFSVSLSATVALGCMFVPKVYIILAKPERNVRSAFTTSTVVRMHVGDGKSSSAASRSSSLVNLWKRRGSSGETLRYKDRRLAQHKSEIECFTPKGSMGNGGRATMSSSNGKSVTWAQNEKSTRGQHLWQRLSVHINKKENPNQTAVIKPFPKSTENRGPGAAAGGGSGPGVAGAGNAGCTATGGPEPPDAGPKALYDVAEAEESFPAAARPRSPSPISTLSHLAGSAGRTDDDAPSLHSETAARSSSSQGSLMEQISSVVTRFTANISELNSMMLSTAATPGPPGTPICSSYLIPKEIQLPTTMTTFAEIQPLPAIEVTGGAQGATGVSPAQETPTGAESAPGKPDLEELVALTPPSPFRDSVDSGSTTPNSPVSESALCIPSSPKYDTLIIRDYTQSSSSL

## CS(=O)(=O)N(CC(=O)N1CCc2ccccc21)c1ccccc1Cl
[1]
  EC50: 10 µM (inconclusive)

## CCn1nc(C)c(CNC(=O)c2ccc(OC)c(OC3CCN(C(C)C)CC3)c2)c1C
[2]
  IC50: 1.75 µM (active)

## Oc1ccc(Cl)cc1CNc1cccc2cccnc12
[3]
  EC50: 23.9 µM (active)
[4]
  EC50: > 150 µM (not active)
[5]
  AC50: 48.4 µM (active)
[6]
  EC50: > 150 µM (not active)

## CC(C)CNc1ccnc(NCc2csc(-c3ccccc3)n2)n1
[7]
  AC50: 5.54 µM (active)
[8]
  AC50: 4.74 µM (active)

## Cc1csc(SCC(=O)Nc2sccc2C#N)n1
[9]
  EC50: > 67.6 µM (inactive)
[10]
  EC50: > 67.6 µM (inactive)

## Cc1ccc(C(=O)NNC(=S)NC(=O)c2ccco2)cc1
[3]
  EC50: 1.87 µM (active)
[11]
  IC50: 23.6 µM (active)
[12]
  IC50: > 122 µM (inactive)
[13]
  EC50: 7.87 µM (active)
[4]
  EC50: 8.89 µM (active)
[14]
  CC50: > 25 µM (active)

## Cc1noc(C)c1S(=O)(=O)Nc1ccc2c(c1)C(=O)N([C@H](C)CO)C[C@H](C)[C@H](CN(C)Cc1ccc3c(c1)OCO3)OCCCC[C@@H](C)O2
[15]
  AC50: 15.7 µM (active)

## CC1CCN(S(=O)(=O)N2CCC(C(=O)NC3CCCC3)CC2)CC1
[16]
  EC50: > 120 µM (not active)
[17]
  AC50: > 70 µM (inactive)
[18]
  EC50: > 120 µM (not active)
[19]
  EC50: > 120 µM (not active)
[20]
  AC50: > 52 µM (inactive)

## FC(F)(F)Oc1ccccc1-c1nnc(SCc2ccccc2)o1
[21]
  AC50: > 52 µM (inactive)

## COc1ccccc1NS(=O)(=O)c1cccc(NC(=O)Nc2ccccc2)c1
[22]
  IC50: 0.644 µM (active)
[23]
  IC50: 64.2 µM (inactive)
[24]
  IC50: 1.27 µM (active)
[25]
  IC50: 48.8 µM (inactive)

## C[C@@H]1CN([C@@H](C)CO)S(=O)(=O)c2ccc(C#CC3CC3)cc2O[C@H]1CN(C)CC1CCOCC1
[26]
  AC50: 31.7 µM (active)
[27]
  AC50: > 52 µM (inactive)
[28]
  AC50: 31.7 µM (active)

## O=C(O)C1CCCCC1C(=O)N1CCc2ccccc2C1CN1Cc2ccccc2C1=O (stereo not drawn)
[29]
  AC50: 91.2 µM (active)
[30]
  AC50: 39.1 µM (active)

## COC(=O)c1ccc(NC(=O)CSc2ccc(-c3ccccn3)nn2)cc1
[31]
  AC50: 115 µM (active)
[32]
  IC50: 35.9 µM (inactive)
[33]
  IC50: 35.9 µM (inactive)
[34]
  IC50: 35.9 µM (inactive)

## Cc1cccc(C(=O)Nc2cccc(NC(=O)c3ccc(C(C)(C)C)cc3)c2)c1
[35]
  IC50: 32.8 µM (active)
[36]
  IC50: 0.184 µM (active)
